Laboratory results: paper PMC3371172 (Chemical biology & drug design, 2012)
Non-standard residues stand in square brackets, D forms with d. Residues, ends and D or L forms follow the SMILES beside them. No end group written: not given here.

What was measured:
HUVEC [1] = format: cell-based, human
HUVEC [2] = settings: 20 µM; cited from earlier work
HUVEC [3] = settings: 20 µM; cited from earlier work; remark: listed apart in the source

Compound	IC50 (HUVEC [1]) [µM]	inhibition of HUVEC migration (HUVEC [2]) [%]	inhibition of HUVEC proliferation (HUVEC [3]) [%]
CC[C@H](C)[C@H](NC(=O)[C@H](CC(N)=O)NC(=O)[C@@H](NC(=O)[C@H](Cc1ccccc1)NC(=O)[C@@H](C)NC(=O)[C@H](Cc1ccccc1)NC(=O)[C@@H]1CCCN1C(=O)[C@H](CCSC)NC(=O)[C@@H](NC(=O)[C@H](CO)NC(=O)[C@H](Cc1ccccc1)NC(=O)[C@H](CCCNC(=N)N)NC(=O)[C@H](CCCNC(=N)N)NC(=O)[C@@H](N)CC(C)C)[C@@H](C)O)[C@@H](C)CC)C(=O)N[C@@H](CC(N)=O)C(=O)N[C@@H](CC(N)=O)C(=O)N[C@H](C(=O)N[C@H](C(=O)N[C@@H](CC(N)=O)C(=O)N[C@@H](Cc1ccccc1)C(N)=O)[C@@H](C)CC)C(C)C [SP2034] (H-LRRFSTMPF[dA]FININNVINF-NH2)	0.54 ± 0.19	–	–
LRRFSTMPFMFCNINNVCNF [SP2000]	–	60	70
LRRFSTMPFMFININNVINF-NH2 [SP2024]	7.45 ± 5.7	–	–
